These results are taken from patent US11214556B1, “Method of treating colorectal cancer” (King Abdulaziz University, priority 2019, dated 2022).

“Also recorded” adds a separate entry of the source.

The subject of data set [1] is C-166 mouse skin fibroblasts. As to the kind of experiment: Selectivity versus normal C-166 fibroblasts. To be noted: HCT-116, Caco-2 and HT-29 versus C-166. In kind it is cell-based. The text has this:
FIG. 3A is a graph illustrating the dose-response curve of compound 1512 on HCT-116 cell lines and C-166 cell line;
See El-Araby, M. E.; Omar, A. M.; Khayat, M. T.; Assiri, H. A.; Al-Abd, A. M., Molecular Mimics of Classic P-Glycoprotein Inhibitors as Multidrug Resistance Suppressors and Their Synergistic Effect on Paclitaxel. PLoS One 2017, 12 (1), e0168938, incorporated herein by reference in its entirety.
Different cell lines were originally purchased from American type culture collection (ATCC, Wesel, Germany) and grown in the tissue culture lab of the Egyptian company for production of vaccines, sera and drugs (Vacsera, Giza, Egypt). The cells were transferred to our laboratory and maintained in the appropriate media as following. […]
The sulforhodamine B (SRB) assays were performed according to Skehan, P.; Storeng, R.; Scudiero, D.; Monks, A.; McMahon, J.; Vistica, D.; Warren, J. T.; Bokesch, H.; Kenney, S.; Boyd, M. R., New colorimetric cytotoxicity assay for anticancer-drug screening. […] Briefly, exponentially growing cells were trypsinized, counted and seeded at the appropriate densities (5000 cells/100 μL/well) into 96-well microtiter plates. […] The protein-bound dye was dissolved in 10 mM Tris base solution for (optical density) OD determination at 510 nm using a SpectraMax plus Microplate Reader (Molecular Devices, CA). […]

The nature of data set [2]: Acute oral toxicity (LD50), OECD guideline 423. In kind it is in vivo. To be noted: both sexes, Swiss albino, mouse, in vivo, po. From the text:
(§1) Since compounds with electrophilic properties, e.g., MA are usually involved in a variety of toxic effects on mammalians, the general acute toxicity of 1512, 3712 and 4112 was investigated by determining the in vivo lethal dose (LD50) according to the Globally Harmonized Classification System (GHS) and following the Organization for Economic Cooperation and Development (OECD) guideline 423 (modified, adopted Mar. 23, 2006). As observed in the cellular assay, the compound safety was confirmed, as the LD50 for all compounds were between 2000-5000 mg/kg (Category 5). See Spielmann, H.; Genschow, E.; Liebsch, M.; Halle, W., Determination of the starting dose for acute oral toxicity (LD50) testing in the up and down procedure (UDP) from cytotoxicity data. ATLA 1999, 27 (6), 957-966, incorporated herein by reference in its entirety.
(§2) The experiment was conducted on 12 healthy Swiss albino mice (males and females) weighing 22-27 g and aged 8 to 10 weeks obtained from the Animal Station, Pharmacology Dept, Faculty of Pharmacy, King Abdulaziz University, Jeddah. See Shoieb, S. M.; Esmat, A.; Khalifa, A. E.; Abdel-Naim, A. B., Chrysin attenuates testosterone-induced benign prostate hyperplasia in rats. Food and Chemical Toxicology 2018, 111, 650-659, incorporated herein by reference in its entirety. All animals were kept at the regulated temperature (average 23° C.), air quality (Central air conditioning) and light (12-h light/dark cycles). Animals were provided free access to food pellets ad libitum and water. The experimental procedure was approved by the Research Ethics Committee, Faculty of Pharmacy, King Abdulaziz University prior to starting the laboratory work. Animals were humanely treated according to international and scientific principles. Changes other than vitality of the animals such as behavioral and food consumption habits were not observed in this study.
(§3) The compounds 1512, 3712 and 4112 of purity 95% or more (LC/MS) were prepared for this study as 10% suspension in water containing 0.5% tween 80.
(§4) The animals were distributed randomly into four groups (3 mice at each group). […] The second group received an oral dose of 2000 mg/Kg of the drug and observed after 24 h to count the deceased animals. According to the Guideline 423, when all animals were found alive, the same test was repeated (dose 2000 mg/kg) were given to the third group (3 animals) and observed for 24 h. All animals survived and therefore, a dose of 5000 mg/kg were administered to the fourth and final group.

Another data set relates to Swiss albino mice. As to the kind of experiment: Acute oral toxicity (LD50), OECD guideline 423. It counts as in vivo. As to conditions: both, Swiss albino, mouse, in vivo, po, 24 h.
Excerpt: as §1, §2, §3, §4

In the next data set the test system is HT-29 cells. As to the kind of experiment: SRB cytotoxicity assay, HT-29. It counts as cell-based, human. To be noted: Homo sapiens, HT-29, monolayer, 72 h exposure, ± SEM. From the text:
(§5) Based on the favorable pharmacologic and physicochemical properties of MOS-1512, it was selected as a new lead for the second subset of compounds (MOS-1812 to MOS-5112). The compounds in this series contained variable groups at R^1 and R^2 that were all tested against the three cancer cell lines (HCT-116, Caco-2 and HT-29).
(§6) Different cell lines were originally purchased from American type culture collection (ATCC, Wesel, Germany) and grown in the tissue culture lab of the Egyptian company for production of vaccines, sera and drugs (Vacsera, Giza, Egypt). The cells were transferred to our laboratory and maintained in the appropriate media as following. HCT-116, CACO-2, and HT-29 (human colon cancer cell lines) were maintained in Roswell Park Memorial Institute medium (RPMI1640) (Invitrogen, Carlsbad, Calif.). The mouse skin fibroblasts (C-166) and Baby Hamster Kidney fibroblasts (BHK) were grown in Dulbecco Modified Eagle's medium (DMEM). Both media were supplemented with 1% of […] of streptomycin, 100 units/mL of penicillin and 10% of heat-inactivated fetal bovine serum (Invitrogen, Carlsbad, Calif.) in a humidified, 5% (v/v) CO2 atmosphere at 37° C.
(§7) The sulforhodamine B (SRB) assays were performed according to Skehan, P.; Storeng, R.; Scudiero, D.; Monks, A.; McMahon, J.; Vistica, D.; Warren, J. T.; Bokesch, H.; Kenney, S.; Boyd, M. R., New colorimetric cytotoxicity assay for anticancer-drug screening. J Natl Cancer Inst 1990, 82 (13), 1107-12, incorporated herein by reference in its entirety. Briefly, exponentially growing cells were trypsinized, counted and seeded at the appropriate densities (5000 cells/100 μL/well) into 96-well microtiter plates. Cells were incubated in a humidified atmosphere at 37° C. for 24 h. Then, the cells were exposed to different compounds at the desired concentrations, (0.01, 0.1, 1, 10, and 100 μM) or to 1% dimethyl sulfoxide (DMSO) for 72 h. At the end of the treatment period, the media were removed, and the cells were fixed with 10% trichloroacetic acid at 4° C. for 1 hr. Following, the cells were washed with tap water four times and incubated with SRB 0.4% for 30 min. Excess dye was removed by washing repeatedly with 1% (vol/vol) acetic acid. The protein-bound dye was dissolved in 10 mM Tris base solution for (optical density) OD determination at 510 nm using a SpectraMax plus Microplate Reader (Molecular Devices, CA). Cell viability was expressed relative to the untreated control cells.
(In general: The SRB assay estimates cell density from bound dye.)

In data set [3] the test system is HCT-116 cells. In words: SRB cytotoxicity assay, HCT-116. As to conditions: for IC50: Homo sapiens, HCT-116, SRB assay, 72 h exposure, ± SEM. It counts as cell-based, human. The method, then:
Compounds in this study were tested against colorectal cancer cell line HCT-116, using sulforhodamine-B (SRB) assay. See Skehan, P.; Storeng, R.; Scudiero, D.; Monks, A.; McMahon, J.; Vistica, D.; Warren, J. T.; Bokesch, H.; Kenney, S.; Boyd, M. R., New colorimetric cytotoxicity assay for anticancer-drug screening. J Natl Cancer Inst 1990, 82 (13), 1107-12, incorporated herein by reference in its entirety. […] However, it was clear that compounds bearing hydrophobic aliphatic groups such as MOS-1505 and MOS-1512 are clearly favored in providing anticancer activities. […] The N-aryl substituents were less advantageous in both potency and solubility.
as §6, §7

The test system of data set [4] is HCT-116 cells. As to the kind of experiment: Nuclear fragmentation by DAPI staining. It counts as cell-based, human. To be noted: 32 μM (IC50 concentration), 48 hours. The procedure:
Several assays were performed to determine the apoptotic effect of the early lead MOS-1512 as well as the potent derivative MOS-4112 on HCT-116 cells. […] See Drutovic, D.; Chripkova, M.; Pilatova, M.; Kruzliak, P.; Perjesi, P.; Sarissky, M.; Lupi, M.; Damia, G.; Broggini, M.; Mojzis, J., Benzylidenetetralones, cyclic chalcone analogues, induce cell cycle arrest and apoptosis in HCT116 colorectal cancer cells. Tumour Biol 2014, 35 (10), 9967-75, incorporated herein by reference in its entirety.
Cells were cultured on sterile 22 mm^2 cover slips (Harvard Apparatus, MA, USA) in sterile six well plates at a density of 2×10^5 cells/well. […] The fixed and permeabilized cells nuclei were denatured with 2 N HCl (300 μl) for 10 min, washed three times more, and treated with 0.1 μg/ml 4′,6′-diamidino-2-phenylindole, dihydrochloride (DAPI) (Sigma-Aldrich, St. Louis, Mo., USA) (1:1000) in (phosphate-buffered saline-Tween 20 (PBST) for 1 hr. After staining, the cells were washed twice with PBS. The cover slips were then mounted on a glass slide with anti-fade mounting medium and viewed with an epifluorescence microscope, Leica, DM 5500 B (Leica, Buffalo Grove, Ill., USA) at a magnification of 60×, and data were captured digitally and quantified using the microscope provided software.

A further data set concerns CACO-2 cells. As to the kind of experiment: SRB cytotoxicity assay, CACO-2. In kind it is cell-based, human. To be noted: Homo sapiens, Caco-2, 72 h exposure, ± SEM.
Excerpt: as §5, §6, §7

The nature of a further data set: Solubility profile. It counts as physicochemical. As to conditions: stated in words together with C log P.
Data set [5] deals with CRC cell lines (HCT-116, Caco-2 and HT-29). In words: Cytotoxic activities against CRC cell lines (statement over three lines). In kind it is cell-based. As to conditions: Homo sapiens.
Excerpt: as §5, §6, §7

The subject of data set [6] is HT-29 colon cancer cell spheroids (cancer stem cells). In words: Primary (1°) colonosphere formation assay. In kind it is cell-based, human. The procedure: Compound 4112 and another potent compound 3712 were also evaluated for their ability to inhibit cancer stem cell proliferation using a primary (1°) colonosphere formation assay. In this assay, HT-29 colon cancer cells were grown in low adhesion plates to form spheres as previously described. See Patel, N. J.; Karuturi, R.; Al-Horani, R. A.; Baranwal, S.; Patel, J.; Desai, U. R.; Patel, B. B., Synthetic, non-saccharide, glycosaminoglycan mimetics selectively target colon cancer stem cells. ACS Chem Biol 2014, 9 (8), 1826-33, incorporated herein by reference in its entirety. Wells treated with the inventive compounds were compared to vehicle treated cells for primary sphere growth inhibition after 5 days of incubation. […] Of note, monolayer growth conditions are ideally suited for examining cellular proliferation, whereas spheroid growth conditions examine cancer stem cell growth and self-renewal properties.
For primary sphere formation, cells were plated in nontreated, low adhesion, 96 wells plate at the concentration of 100 cells/100 μL/well in stem cell media (SCM) that consisted of DMEM:F12:AA (Gibco), supplemented with 1×B27 (Gibco), 20 ng/mL epidermal growth factor, and 10 ng/mL fibroblast growth factor (Sigma). After 4 h of incubation, vehicle (control) or 3712 and 4112 at the desired concentrations were added to each well (at least in triplicates for each sample). On day five, numbers of spheres ranging from […] in diameter were counted using phase contrast microscope and percent inhibition was calculated compared to control.

As a reminder, the LD50 is the dose at which mortality reaches 50%. As usually defined, the IC50 is the concentration at which inhibition is half-maximal. On to `CCCNC(=O)/C(=C/c1ccccc1)NC(=O)/C=C/c1ccccc1` [Compound 1512, (Z)-2-[(E)-cinnamamido]-3-phenyl-N-propylacrylamide], for which the “selectivity in killing cancer cells versus normal cells” value in data set [1] is “high selectivity”. In [2], the LD50 at 24 h was in the range of 2000 to 5000 mg/kg. Also, the “GHS acute toxicity category” value in the data set with Swiss albino mice is reported as “Category 5”. For the same compound, the figures for the IC50 in the data set on HT-29 cells, in the data set on HCT-116 cells [3] and with CACO-2 cells were 35.5 ± 1.7 µM, 32 ± 2.6 µM and 38 ± 0.87 µM, respectively. The “cancer cell resistance (R-value)” value in the data set with HCT-116 cells [3] (dose-response curve, FIG. 3A) came out at 8.2%. For the same compound, the “nuclear structure/morphology, DAPI staining” value in the data set with HCT-116 cells [4] was “very strong blue fluorescence; also recorded: nuclear condensation and fragmentation”. The solubility result in “Solubility profile” is “better solubility profile”.

On to `CCCNC(=O)/C(=C/c1c[nH]c2ccccc12)NC(=O)C=Cc1ccccc1` [Compound 3712, (Z)-2-cinnamamido-3-(1H-indol-3-yl)-N-propylacrylamide], for which the IC50 was below 5 µM in data set [5]; 2.36 ± 0.04 µM in the data set with HT-29 cells; 21.1 ± 1.3 µM in [6] (Homo sapiens, 120 h, HT-29 spheres, 5 days of incubation); 1.65 ± 0.05 µM in the data set on HCT-116 cells [3]; 2.1 ± 0.03 µM in the data set with CACO-2 cells. In data set [2], this compound had an LD50 at 24 h of 2000 to 5000 mg/kg. The “GHS acute toxicity category” value in the data set on Swiss albino mice is reported as “Category 5”. Also, in data set [6] (spheroids >50 μm, 5 days), the “inhibition of colon cancer spheroids formation” value is given as “dose-dependent inhibition”.
